Patent US10131702B2, “Glucagon-GLP-1-GIP triple agonist compounds” (priority 2013, dated 2018)
Read-outs that look alike come from different tables or passages of the source. Numbered stars: 1 amine (or outer) side, 2 acyl side, 3 side chain; on linkers, the order of the positions; unused ones are H or OH. Square brackets hold non-standard residues; d marks the D form. Side chains are listed from the residue outwards. Peptide text beside a SMILES is read from it. * marks the point of attachment. γGlu = O=C(O)[C@H](CCC(=O)[*:2])N[*:1]; Stearoyl = CCCCCCCCCCCCCCCCCC(=O)*; AEEA = NCCOCCOCC(=O)O; Aib = CC(C)(N)C(=O)O

What was measured:
Format in all cases: cell-based
human GIP R = molecular target: T1, human GIP R (Homo sapiens, UniProt P48546); test: cAMP induction in HEK293 cells expressing human GIP R (AlphaScreen cAMP kit)
T1 construct: expressed in transfected cells
T1 sequence (P48546 22-466): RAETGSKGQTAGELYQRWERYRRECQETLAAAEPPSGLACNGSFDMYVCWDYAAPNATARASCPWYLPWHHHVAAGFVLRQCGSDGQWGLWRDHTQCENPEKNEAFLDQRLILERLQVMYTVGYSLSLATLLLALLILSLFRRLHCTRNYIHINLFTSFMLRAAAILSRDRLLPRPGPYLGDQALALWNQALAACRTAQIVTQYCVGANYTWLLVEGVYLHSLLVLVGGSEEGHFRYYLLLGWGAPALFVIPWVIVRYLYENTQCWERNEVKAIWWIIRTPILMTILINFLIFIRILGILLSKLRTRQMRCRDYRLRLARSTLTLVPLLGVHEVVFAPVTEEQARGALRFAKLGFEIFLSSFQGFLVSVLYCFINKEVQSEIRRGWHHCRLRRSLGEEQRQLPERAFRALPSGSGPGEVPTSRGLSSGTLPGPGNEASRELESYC

human GLP-1 R = molecular target: T2, human GLP-1 R (Homo sapiens, UniProt P43220); test: cAMP induction in HEK293 cells expressing human GLP-1 R (AlphaScreen cAMP kit); conditions: average EC50, cAMP, HEK293 cells expressing human GLP-1 R, read-out: GLP1 R (EC50 in nM)
T2 construct: expressed in transfected cells
Procedure: Briefly, HEK293 cells expressing the human GIP R, GLP-1 R or GCG R (stable cell lines generated through transfection of the cDNA for human GIP R, GLP-1 R or GCG R and selection of stable clones) were seeded at 30,000 cells/well in 96-well microtiter plates coated with 0.01% poly-L-lysine, and grown for 1 day in culture in 200 μl growth medium (DMEM, 10% FCS, Penicillin (100 IU/ml), Streptomycin (100 μg/ml)). On the day of analysis, growth medium was removed and the cells were washed once with 150 μl Tyrode's buffer (Tyrode's Salts (9.6 g/l), 10 mM HEPES, pH 7.4). […] The Assay buffer was removed and cells are lysed in 80 μl Lysis buffer (0.1% w/v BSA, 5 mM HEPES, 0.3% v/v Tween-20) per well. From each well 10 μl of lysed cells were transferred to a 384-well plate and mixed with 15 μl bead-mix (1 Unit/15 μl anti-cAMP Acceptor Beads, 1 Unit/15 μl Donor Beads, and 1 Unit/15 μl Biotinylated cAMP in Assay Buffer). The plates were mixed and incubated in the dark for an hour at room temperature before measuring using an Envision™ plate reader (Perkin-Elmer).
The resulting cAMP curves were plotted as absolute cAMP concentrations (nM) over log (test compound concentration) and analyzed using the curve fitting program XLfit.
Parameters calculated to describe both the potency as well as the agonistic activity of each test compound on the receptors were:
EC50, a concentration resulting in a half-maximal elevation of cAMP levels, reflecting the potency of the test compound.

human GCG R = molecular target: T3, human GCG R (Homo sapiens, UniProt P47871); test: cAMP induction in HEK293 cells expressing human GCG R (AlphaScreen cAMP kit)
T3 construct: expressed in transfected cells

[1] = GIP R (EC50 in nM), Table 2, average EC50, cAMP
[2] = GIP R (EC50 in nM), Table 2b (most comprehensive data), average EC50, cAMP
[3] = Table 2b (most comprehensive data)
[4] = Table 2b (most comprehensive data), average EC50, cAMP, read-out: GIP R (EC50 in nM)

T3 sequence (P47871 26-477): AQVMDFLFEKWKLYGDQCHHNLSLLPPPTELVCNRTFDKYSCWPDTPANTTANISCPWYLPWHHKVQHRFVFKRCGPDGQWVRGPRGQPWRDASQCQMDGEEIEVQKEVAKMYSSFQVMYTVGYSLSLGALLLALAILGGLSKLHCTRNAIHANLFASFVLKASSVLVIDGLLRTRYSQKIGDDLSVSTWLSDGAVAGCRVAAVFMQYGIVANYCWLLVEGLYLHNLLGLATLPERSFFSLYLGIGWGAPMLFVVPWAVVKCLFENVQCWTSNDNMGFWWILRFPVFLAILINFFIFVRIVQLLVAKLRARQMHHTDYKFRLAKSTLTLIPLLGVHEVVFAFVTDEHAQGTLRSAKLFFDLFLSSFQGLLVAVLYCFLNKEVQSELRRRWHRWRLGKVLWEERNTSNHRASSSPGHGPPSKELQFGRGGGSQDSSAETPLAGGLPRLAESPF
T2 sequence (P43220 24-463): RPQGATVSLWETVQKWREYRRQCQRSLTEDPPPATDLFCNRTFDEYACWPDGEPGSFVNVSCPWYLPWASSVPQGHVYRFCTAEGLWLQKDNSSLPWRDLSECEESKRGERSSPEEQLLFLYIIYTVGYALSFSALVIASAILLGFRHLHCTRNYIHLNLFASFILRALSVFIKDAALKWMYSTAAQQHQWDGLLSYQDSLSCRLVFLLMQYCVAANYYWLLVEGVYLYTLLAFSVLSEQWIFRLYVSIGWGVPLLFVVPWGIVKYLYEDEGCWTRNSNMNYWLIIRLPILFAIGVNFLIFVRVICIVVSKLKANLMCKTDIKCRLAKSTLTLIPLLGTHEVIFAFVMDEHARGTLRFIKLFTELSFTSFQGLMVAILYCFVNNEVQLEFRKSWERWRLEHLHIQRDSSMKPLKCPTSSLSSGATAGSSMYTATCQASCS

CC(C)C[C@H](NC(=O)[C@H](C)NC(=O)[C@H](CCCCN)NC(=O)[C@H](CO)NC(=O)[C@H](Cc1ccc(O)cc1)NC(=O)[C@H](CC(=O)O)NC(=O)[C@H](CO)NC(=O)[C@@H](NC(=O)[C@H](Cc1ccccc1)NC(=O)[C@@H](NC(=O)CNC(=O)[C@H](CCC(N)=O)NC(=O)C(C)(C)NC(=O)[C@@H](N)Cc1ccc(O)cc1)[C@@H](C)O)[C@@H](C)O)C(=O)N[C@@H](CC(=O)O)C(=O)N[C@@H](CCC(=O)O)C(=O)N[C@@H](CCCCN)C(=O)N[C@@H](C)C(=O)N[C@@H](C)C(=O)N[C@@H](CCCCN)C(=O)N[C@@H](CCC(=O)O)C(=O)N[C@@H](Cc1ccccc1)C(=O)N[C@H](C(=O)N[C@@H](CCC(=O)O)C(=O)N[C@@H](Cc1c[nH]c2ccccc12)C(=O)N[C@@H](CC(C)C)C(=O)N[C@@H](CC(C)C)C(=O)N[C@@H](CO)C(=O)N[C@@H](C)C(N)=O)C(C)C [Compound 21] (HELM PEPTIDE1{Y.[Aib].Q.G.T.F.T.S.D.Y.S.K.A.L.D.E.K.A.A.K.E.F.V.E.W.L.L.S.A.[am]}$$$$V2.0)
EC50 (human GIP R; [1]): 0.18 nM
EC50 (human GIP R; [2]): 0.015 nM
EC50 (human GLP-1 R; Table 2): 0.014 nM
EC50 (human GLP-1 R; [3]): 0.1 nM
EC50 (human GCG R): 0.1 nM

CCCCCCCCCCCCCCCC(=O)N[C@@H](CCC(=O)NCCCC[C@H](NC(=O)[C@H](CCC(=O)O)NC(=O)[C@H](CC(C)C)NC(=O)[C@H](Cc1ccc(O)cc1)NC(=O)[C@@H](NC(=O)[C@H](CO)NC(=O)[C@H](Cc1ccc(O)cc1)NC(=O)[C@H](CC(=O)O)NC(=O)[C@H](CO)NC(=O)[C@@H](NC(=O)[C@H](Cc1ccccc1)NC(=O)[C@@H](NC(=O)CNC(=O)[C@H](CCC(N)=O)NC(=O)C(C)(C)NC(=O)[C@@H](N)Cc1ccc(O)cc1)[C@@H](C)O)[C@@H](C)O)[C@@H](C)CC)C(=O)N[C@@H](CCCCN)C(=O)N[C@@H](C)C(=O)N[C@@H](C)C(=O)N[C@@H](CCCCN)C(=O)N[C@@H](CCC(=O)O)C(=O)N[C@@H](Cc1ccccc1)C(=O)N[C@H](C(=O)N[C@@H](CCC(=O)O)C(=O)N[C@@H](Cc1c[nH]c2ccccc12)C(=O)N[C@@H](CC(C)C)C(=O)N[C@@H](CC(C)C)C(=O)N[C@@H](CO)C(=O)N[C@@H](C)C(N)=O)C(C)C)C(=O)O [Compound 24] (HELM PEPTIDE1{Y.[Aib].Q.G.T.F.T.S.D.Y.S.I.Y.L.E.K.K.A.A.K.E.F.V.E.W.L.L.S.A.[am]}|PEPTIDE2{[CCCCCCCCCCCCCCCC(=O)[*:2]].[gGlu]}$PEPTIDE1,PEPTIDE2,16:R3-2:R2$$$V2.0)
EC50 (human GIP R; [1]): 0.1 nM
EC50 (human GIP R; [2]): 0.1 nM
EC50 (human GLP-1 R; Table 2): 0.091 nM
EC50 (human GLP-1 R; [3]): 0.091 nM
EC50 (human GCG R): 0.28 nM

CCCCCCCCCCCCCCCC(=O)N[C@@H](CCC(=O)NCCCC[C@H](NC(=O)[C@H](CO)NC(=O)[C@H](CC(=O)O)NC(=O)[C@H](CC(C)C)NC(=O)[C@H](Cc1ccc(O)cc1)NC(=O)[C@@H](NC(=O)[C@H](CO)NC(=O)[C@H](Cc1ccc(O)cc1)NC(=O)[C@H](CC(=O)O)NC(=O)[C@H](CO)NC(=O)[C@@H](NC(=O)[C@H](Cc1ccccc1)NC(=O)[C@@H](NC(=O)CNC(=O)[C@H](CCC(N)=O)NC(=O)C(C)(C)NC(=O)[C@@H](N)Cc1ccc(O)cc1)[C@@H](C)O)[C@@H](C)O)[C@@H](C)CC)C(=O)N[C@@H](C)C(=O)N[C@@H](C)C(=O)N[C@@H](Cc1c[nH]cn1)C(=O)N[C@@H](CC(=O)O)C(=O)N[C@@H](Cc1ccccc1)C(=O)N[C@H](C(=O)N[C@@H](CCC(=O)O)C(=O)N[C@@H](Cc1c[nH]c2ccccc12)C(=O)N[C@@H](CC(C)C)C(=O)N[C@@H](CC(C)C)C(=O)N[C@@H](CCCNC(=N)N)C(=O)N[C@@H](C)C(N)=O)C(C)C)C(=O)O [Compound 27] (HELM PEPTIDE1{Y.[Aib].Q.G.T.F.T.S.D.Y.S.I.Y.L.D.S.K.A.A.H.D.F.V.E.W.L.L.R.A.[am]}|PEPTIDE2{[CCCCCCCCCCCCCCCC(=O)[*:2]].[gGlu]}$PEPTIDE1,PEPTIDE2,17:R3-2:R2$$$V2.0)
EC50 (human GIP R; Table 2, average EC50, cAMP, read-out: GIP R (EC50 in nM)): 0.12 nM
EC50 (human GIP R; [4]): 0.16 nM
EC50 (human GLP-1 R; Table 2): 0.16 nM
EC50 (human GLP-1 R; [3]): 0.07 nM
EC50 (human GCG R; Table 2, average EC50, cAMP, HEK293 cells expressing human GCG R, read-out: GCG R (EC50 in nM)): 0.07 nM

CCCCCCCCCCCCCCCCCC(=O)N[C@@H](CCC(=O)NCCOCCOCC(=O)NCCOCCOCC(=O)NCCCC[C@H](NC(=O)[C@H](CCCCN)NC(=O)[C@H](CCC(=O)O)NC(=O)[C@H](CC(C)C)NC(=O)[C@H](Cc1ccc(O)cc1)NC(=O)[C@@H](NC(=O)[C@H](CO)NC(=O)[C@H](Cc1ccc(O)cc1)NC(=O)[C@H](CC(=O)O)NC(=O)[C@H](CO)NC(=O)[C@@H](NC(=O)[C@H](Cc1ccccc1)NC(=O)[C@@H](NC(=O)CNC(=O)[C@H](CCC(N)=O)NC(=O)C(C)(C)NC(=O)[C@@H](N)Cc1ccc(O)cc1)[C@@H](C)O)[C@@H](C)O)[C@@H](C)CC)C(=O)N[C@@H](C)C(=O)N[C@@H](C)C(=O)N[C@@H](CCCCN)C(=O)N[C@@H](CCC(=O)O)C(=O)N[C@@H](Cc1ccccc1)C(=O)N[C@H](C(=O)N[C@@H](CCC(=O)O)C(=O)N[C@@H](Cc1c[nH]c2ccccc12)C(=O)N[C@@H](CC(C)C)C(=O)N[C@@H](CC(C)C)C(=O)N[C@@H](CO)C(=O)N[C@@H](C)C(=O)NCC(=O)N1CCC[C@H]1C(=O)N[C@@H](CO)C(=O)N[C@@H](CO)C(=O)NCC(=O)N[C@@H](C)C(=O)N1CCC[C@H]1C(=O)N1CCC[C@H]1C(=O)N1CCC[C@H]1C(=O)N[C@@H](CO)C(N)=O)C(C)C)C(=O)O [Compound 37] (H-Y[Aib]QGTFTSDYSIYLEKK([AEEA-AEEA-γGlu-Stearoyl])AAKEFVEWLLSAGPSSGAPPPS-NH2)
EC50 (human GIP R; [4]): 0.018 nM
EC50 (human GCG R; Table 2b (most comprehensive data), average EC50, cAMP, HEK293 cells expressing human GCG R, read-out: GCG R (EC50 in nM)): 0.014 nM

CC[C@H](C)[C@H](NC(=O)[C@H](CO)NC(=O)[C@H](Cc1ccc(O)cc1)NC(=O)[C@H](CC(=O)O)NC(=O)[C@H](CO)NC(=O)[C@@H](NC(=O)[C@H](Cc1ccccc1)NC(=O)[C@@H](NC(=O)CNC(=O)[C@H](CCC(N)=O)NC(=O)C(C)(C)NC(=O)[C@@H](N)Cc1ccc(O)cc1)[C@@H](C)O)[C@@H](C)O)C(=O)N[C@@H](Cc1ccc(O)cc1)C(=O)N[C@@H](CC(C)C)C(=O)N[C@@H](CCC(=O)O)C(=O)N[C@@H](CCCCN)C(=O)N[C@@H](CCCCN)C(=O)N[C@@H](C)C(=O)N[C@@H](C)C(=O)N[C@@H](CCCCN)C(=O)N[C@@H](CCC(=O)O)C(=O)N[C@@H](Cc1ccccc1)C(=O)N[C@H](C(=O)N[C@@H](CCC(=O)O)C(=O)N[C@@H](Cc1c[nH]c2ccccc12)C(=O)N[C@@H](CC(C)C)C(=O)N[C@@H](CC(C)C)C(=O)N[C@@H](CO)C(=O)N[C@@H](C)C(N)=O)C(C)C [Compound 20] (HELM PEPTIDE1{Y.[Aib].Q.G.T.F.T.S.D.Y.S.I.Y.L.E.K.K.A.A.K.E.F.V.E.W.L.L.S.A.[am]}$$$$V2.0)
EC50 (human GIP R; [1]): 0.047 nM
EC50 (human GIP R; [2]): 0.009 nM
EC50 (human GLP-1 R; Table 2): 0.0094 nM
EC50 (human GCG R): 0.057 nM

CC(C)C[C@H](NC(=O)[C@H](CC(C)C)NC(=O)[C@H](Cc1c[nH]c2ccccc12)NC(=O)[C@H](CCC(=O)O)NC(=O)[C@@H](NC(=O)[C@H](Cc1ccccc1)NC(=O)[C@H](CCC(=O)O)NC(=O)[C@H](CCCCN)NC(=O)[C@H](CCC(N)=O)NC(=O)[C@H](C)NC(=O)[C@H](CCCCN)NC(=O)[C@H](CCCCN)NC(=O)[C@H](CCC(=O)O)NC(=O)[C@H](CC(C)C)NC(=O)[C@H](Cc1ccc(O)cc1)NC(=O)[C@H](CCCCN)NC(=O)[C@H](CO)NC(=O)[C@H](Cc1ccc(O)cc1)NC(=O)[C@H](CC(=O)O)NC(=O)[C@H](CO)NC(=O)[C@@H](NC(=O)[C@H](Cc1ccccc1)NC(=O)[C@@H](NC(=O)CNC(=O)[C@H](CCC(N)=O)NC(=O)C(C)(C)NC(=O)[C@@H](N)Cc1ccc(O)cc1)[C@@H](C)O)[C@@H](C)O)C(C)C)C(=O)N[C@@H](CO)C(=O)N[C@@H](C)C(N)=O [Compound 22] (HELM PEPTIDE1{Y.[Aib].Q.G.T.F.T.S.D.Y.S.K.Y.L.E.K.K.A.Q.K.E.F.V.E.W.L.L.S.A.[am]}$$$$V2.0)
EC50 (human GIP R; [1]): 0.18 nM
EC50 (human GIP R; [2]): 0.03 nM
EC50 (human GLP-1 R; Table 2): 0.028 nM
EC50 (human GCG R): 0.76 nM

CC[C@H](C)[C@H](NC(=O)[C@H](CO)NC(=O)[C@H](Cc1ccc(O)cc1)NC(=O)[C@H](CC(=O)O)NC(=O)[C@H](CO)NC(=O)[C@@H](NC(=O)[C@H](Cc1ccccc1)NC(=O)[C@@H](NC(=O)CNC(=O)[C@H](CCC(N)=O)NC(=O)C(C)(C)NC(=O)[C@@H](N)Cc1ccc(O)cc1)[C@@H](C)O)[C@@H](C)O)C(=O)N[C@@H](Cc1ccc(O)cc1)C(=O)N[C@@H](CC(C)C)C(=O)N[C@@H](CC(=O)O)C(=O)N[C@@H](CO)C(=O)N[C@@H](CCCCN)C(=O)N[C@@H](C)C(=O)N[C@@H](C)C(=O)N[C@@H](CCCCN)C(=O)N[C@@H](CC(=O)O)C(=O)N[C@@H](Cc1ccccc1)C(=O)N[C@H](C(=O)N[C@@H](CCC(=O)O)C(=O)N[C@@H](Cc1c[nH]c2ccccc12)C(=O)N[C@@H](CC(C)C)C(=O)N[C@@H](CC(C)C)C(=O)N[C@@H](CO)C(=O)N[C@@H](C)C(N)=O)C(C)C [Compound 10] (HELM PEPTIDE1{Y.[Aib].Q.G.T.F.T.S.D.Y.S.I.Y.L.D.S.K.A.A.K.D.F.V.E.W.L.L.S.A.[am]}$$$$V2.0)
EC50 (human GIP R; [1]): 0.24 nM
EC50 (human GIP R; [2]): 0.012 nM
EC50 (human GLP-1 R; Table 2): 0.012 nM
EC50 (human GLP-1 R; [3]): 0.1 nM
EC50 (human GCG R): 0.1 nM
